Results reported in US11473151B2, “Diagnostic and therapeutic methods for cancer” (Genentech, Inc., priority 2017, dated 2022).
Entries after “also recorded” stand apart in the source; their conditions may differ.

Tested on: UC, NSCLC, TNBC and PDAC patients
Experiment: Validation of the 6-gene signature (6TBRS) in atezolizumab clinical trials (IMvigor210, POPLAR)
Format: in vivo, human
Conditions: patients with high expression of the 6-gene signature
Excerpt: We developed a pan-tissue 6-gene F-TBRS based on the 19-gene Pan-F-TBRS data described above but further prioritizing TGF-β pathway components (TGFB1 and TGFBR2) and targets (CTGF, ADAM19, ACTA2, and COMP). To validate the predictive value of the 6-gene signature, we calculated hazard ratios for prognostic effects (using univariate continuous Cox proportional hazards regression models) and predictive effects, and calculated hazard ratios for predictive effects (using the log-rank test with median cutoff) in atezolizumab clinical trials. […] See, e.g., FIGS. 6B and 6C, which show data from IMvigor210 and the POPLAR study (NCT01903993), respectively.

What does the source list for “atezolizumab: anti-PD-L1 antibody (Genentech), CAS Registry Number 1422185-06-5, also known as MPDL3280A”?
response/benefit from monotherapy: lack of benefit; also recorded: lack of response; response/benefit from monotherapy (listed as atezolimumab): lack of response
